Data from US20220089636A1, “TETRAZOLONE SUBSTITUTED STEROIDS AND USE THEREOF” (Beijing Xuanyi PharmaSciences Co., Ltd., priority 2019, published 2022).
Read-outs that look alike come from different tables or passages of the source.

How the values were obtained:
α1β2γ2 GABAA receptor = target: T1, α1β2γ2 GABAA receptor (Homo sapiens, UniProt P14867+P47870); test: Patch clamp electrophysiology assay of recombinant α1β2γ2 GABAA receptors (potentiation of 2 μM GABA-evoked Cl- current); assay type: cell-based; conditions: HEK293T cells stably transfected with α1β2γ2 GABAA; for EC50: whole cell, 2 μM GABA, -80 mV
T1 construct: expressed in transfected cells
Method: Cellular electrophysiology is used to measure the pharmacological properties of GABAA receptor modulators in heterologous cell systems. Each compound is tested for its ability to affect GABA mediated currents at a submaximal agonist dose (GABA EC20=2 μM). HEK293T cells are stably transfected with the α1β2γ2 subunits of the GABAA receptor. Flasks or dishes of HEK293 GABAA cells were maintained in the medium (DMEM, 11% (v/v) heat inactivated FBS, 100 or 200 μg/ml G418, 40 μg/ml Hygromycin B, 80 μg/ml Zeocin) and incubated at 37° C. in a humidified incubator with 5% CO2. 12 to 24 hours prior to electrophysiological recordings, the cells were plated on glass cover slips placed in culture dishes and maintained under the same incubation and media conditions. The number of cells being plated on the cover slip should reach a confluence rate at which majority of the cells are single.
For the electrophysiological recordings in the study the following external and internal solutions were used (Table 1):
HEKA EPC 10 USB patch clamp amplifier (from HEKA Elektronik, Germany) was used in the whole cell recording. A cover slip with plenty of single HEK293T-GABAA cells on the surface was removed and placed into a continuously perfused (approximately 1-2 ml/minute) recording chamber mounted on an inverted microscope. GABAA Cl^− current was recorded from single cell using standard whole cell recording techniques. 2 μM GABA was used to evoke GABAA Cl^− current (2 μM of GABA was the EC10-EC20 value of agonist GABA obtained internally on the stable GABAA cells used in this study). After achieving break-in (whole-cell) configuration, the cell was voltage clamped at a holding potential of −80 mV. Only stable cells meeting the recording parameters (membrane resistance Rm>500 MΩ, access resistance (Ra)<15 MΩ, leak current<100 pA in 90% of the recording time) were used. 2 μM GABA was applied to the cell to induce stable Cl^− current first as control for about 2 seconds, test compounds (i.e., compounds of formula (AI), (I), (AII), and (II), or any subgenera thereof) were followed to be applied to the cells for 3 min, then 2 μM GABA was applied to observe the potentiation effect on the GABAA Cl^− current. Different doses of test compound from low to high were applied to the same cell when the cell was stable. A cell was considered stable when current size evoked by 2 μM GABA applied to the cell from time to time was similar. To minimize the possible desensitation of GABAA Cl^− current, duration between applications of test articles was set to 180 seconds.
Test compounds were dissolved in DMSO to form stock solutions (10 mM). Test compounds were diluted to 0.003, 0.01, 0.03, 0.1, 0.3, 1, 3 and 10 μM in bath solution. AU concentrations of test articles were tested on each cell. Data were analyzed using software provided by HEKA, Microsoft Excel and Graphpad Prism (Table 2).

[1] = Mouse PK study (i.v. and p.o.); assay type: in vivo; conditions: plasma, male CD1 mice; for half-life: read-out: T1/2 (hr) i.v. (converted); for Vd: read-out: Vss; for bioavailability: 5 mg/kg p.o. vs 1 mg/kg i.v.
Method: Test compounds were dosed to male CD1 mice at 5 mg/kg by oral gavage (p.o.) or 1 mg/kg by intravenous injection (i.v.). Blood samples were taken at 0.083, 0.25, 0.5, 1.0, 3.0, 6.0 and 24 hours post i.v. dosing and at 0.25, 0.5, 1.0, 3.0, 6.0 and 24 hours post p.o. dosing. The plasma concentration of compounds were determined by HPLC.

[2] = iv, 1 mg/kg i.v., read-out: AUClast (hr*ng/mL) i.v.
[3] = po, 5 mg/kg p.o., read-out: AUClast (hr*ng/mL) p.o.

T1 sequence (P14867 28-456): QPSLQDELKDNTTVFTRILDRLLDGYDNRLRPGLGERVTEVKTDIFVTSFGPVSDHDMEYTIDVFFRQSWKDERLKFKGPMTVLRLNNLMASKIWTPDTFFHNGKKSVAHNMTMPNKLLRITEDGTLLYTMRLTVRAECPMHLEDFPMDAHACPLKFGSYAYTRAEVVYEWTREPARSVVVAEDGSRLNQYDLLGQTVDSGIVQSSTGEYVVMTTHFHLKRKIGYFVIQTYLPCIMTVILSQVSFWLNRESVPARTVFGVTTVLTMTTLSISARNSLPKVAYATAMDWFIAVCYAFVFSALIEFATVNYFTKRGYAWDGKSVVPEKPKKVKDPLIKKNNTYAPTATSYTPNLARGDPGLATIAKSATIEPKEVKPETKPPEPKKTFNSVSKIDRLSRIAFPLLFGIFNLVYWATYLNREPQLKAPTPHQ
T1 sequence (P47870 25-512 limits assumed): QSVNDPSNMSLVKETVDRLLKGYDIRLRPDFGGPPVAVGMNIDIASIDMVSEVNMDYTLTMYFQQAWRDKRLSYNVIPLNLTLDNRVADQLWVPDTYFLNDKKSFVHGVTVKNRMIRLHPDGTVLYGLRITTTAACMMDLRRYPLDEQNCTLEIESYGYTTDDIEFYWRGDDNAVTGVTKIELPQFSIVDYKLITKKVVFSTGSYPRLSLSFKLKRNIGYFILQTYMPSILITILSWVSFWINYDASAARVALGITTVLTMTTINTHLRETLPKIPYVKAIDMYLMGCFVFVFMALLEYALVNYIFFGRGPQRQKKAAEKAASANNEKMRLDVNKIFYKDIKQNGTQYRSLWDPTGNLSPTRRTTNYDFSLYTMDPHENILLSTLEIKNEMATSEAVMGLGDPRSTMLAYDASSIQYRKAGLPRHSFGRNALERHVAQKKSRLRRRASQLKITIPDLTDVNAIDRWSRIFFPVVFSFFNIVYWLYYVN
T1 sequence (P18507 40-475 partner): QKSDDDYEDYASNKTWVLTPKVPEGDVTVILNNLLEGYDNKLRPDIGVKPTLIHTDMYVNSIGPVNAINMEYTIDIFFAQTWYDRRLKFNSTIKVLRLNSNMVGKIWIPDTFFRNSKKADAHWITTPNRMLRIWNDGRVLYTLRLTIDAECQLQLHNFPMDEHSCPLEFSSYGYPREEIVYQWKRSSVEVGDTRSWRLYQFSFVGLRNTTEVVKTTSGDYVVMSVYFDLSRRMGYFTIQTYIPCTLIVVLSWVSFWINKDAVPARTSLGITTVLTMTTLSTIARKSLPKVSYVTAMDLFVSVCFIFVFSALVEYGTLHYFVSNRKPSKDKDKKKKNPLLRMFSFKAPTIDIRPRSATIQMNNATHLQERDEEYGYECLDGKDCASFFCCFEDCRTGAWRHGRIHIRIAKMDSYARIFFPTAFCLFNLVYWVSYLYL

Structure (SMILES) | EC50 (α1β2γ2 GABAA receptor) | clearance ([1]; iv, 1 mg/kg i.v.) | AUC(0-t) [1, 2] | half-life ([1]; iv, 1 mg/kg i.v.) | Vd ([1]; iv, 1 mg/kg i.v.) | Cmax ([1]; po, 5 mg/kg p.o.) | Tmax ([1]; po, 5 mg/kg p.o.) | bioavailability ([1]; po) | AUC(0-t) [1, 3] | Emax (α1β2γ2 GABAA receptor; HEK-293T, potentiation of 2 μM GABA current)
C[C@@]1(O)CC[C@H]2[C@H](CC[C@@H]3[C@@H]2CC[C@]2(C)[C@@H](C(=O)Cn4nnn(C5CCCCC5)c4=O)CC[C@@H]32)C1 [Example 9, 1-cyclohexyl-4-(2-((3R,5R,8R,9R,10S,13S,14S,17S)-3-hydroxy-3,13-dimethylhexadecahydro-1H-cyclopenta[a]phenanthren-17-yl)-2-oxoethyl)-1,4-dihydro-5H-tetrazol-5-one] | 1380 nM |  |  |  |  |  |  |  |  | 
C[C@@]1(O)CC[C@H]2[C@H](CC[C@@H]3[C@@H]2CC[C@]2(C)[C@@H](C(=O)Cn4nnn(C5CCCC5)c4=O)CC[C@@H]32)C1 [Example 8, 1-cyclopentyl-4-(2-((3R,5R,8R,9R,10S,13S,14S,17S)-3-hydroxy-3,13-dimethylhexadecahydro-1H-cyclopenta[a]phenanthren-17-yl)-2-oxoethyl)-1,4-dihydro-5H-tetrazol-5-one] | 95 nM | 140 mL/min/kg | 117 ng·h/mL | 0.73 h | 2.38 L/kg | 22 ng/mL | 39.6 min | 4.48% | 26 ng·h/mL | 
COc1ccc(-n2nnn(CC(=O)[C@H]3CC[C@H]4[C@@H]5CC[C@@H]6C[C@](C)(O)CC[C@@H]6[C@H]5CC[C@]34C)c2=O)cc1 [Example 15, 1-(2-((3R,5R,8R,9R,10S,13S,14S,17S)-3-hydroxy-3,13-dimethylhexadecahydro-1H-cyclopenta[a]phenanthren-17-yl)-2-oxoethyl)-4-(4-methoxyphenyl)-1,4-dihydro-5H-tetrazol-5-one] | 5 nM | 30 mL/min/kg | 542 ng·h/mL | 1.05 h | 1.76 L/kg | 106 ng/mL | 60 min | 10.8% | 292 ng·h/mL | 
C[C@@]1(O)CC[C@H]2[C@H](CC[C@@H]3[C@@H]2CC[C@]2(C)[C@@H](C(=O)Cn4nnn(-c5cccc(C#N)c5)c4=O)CC[C@@H]32)C1 [Example 14, 3-(4-(2-((3R,5R,8R,9R,10S,13S,14S,17S)-3-hydroxy-3,13-dimethylhexadecahydro-1H-cyclopenta[a]phenanthren-17-yl)-2-oxoethyl)-5-oxo-4,5-dihydro-1H-tetrazol-1-yl)benzonitrile] | 7 nM | 20.5 mL/min/kg | 771 ng·h/mL | 1.44 h | 1.92 L/kg | 250 ng/mL | 60 min | 28.9% | 1120 ng·h/mL | 974%
C[C@@]1(O)CC[C@H]2[C@H](CC[C@@H]3[C@@H]2CC[C@]2(C)[C@@H](C(=O)Cn4nnn(-c5cccc(F)c5)c4=O)CC[C@@H]32)C1 [Example 12, 1-(3-fluorophenyl)-4-(2-((3R,5R,8R,9R,10S,13S,14S,17S)-3-hydroxy-3,13-dimethylhexadecahydro-1H-cyclopenta[a]phenanthren-17-yl)-2-oxoethyl)-1,4-dihydro-5H-tetrazol-5-one] | 9.3 nM | 8.33 mL/min/kg | 1880 ng·h/mL | 6.22 h | 2.86 L/kg | 388 ng/mL | 60 min | 42.4% | 4140 ng·h/mL | 
C[C@@]1(O)CC[C@H]2[C@H](CC[C@@H]3[C@@H]2CC[C@]2(C)[C@@H](C(=O)Cn4nnn(CC5CC5)c4=O)CC[C@@H]32)C1 [Example 7, 1-(cyclopropylmethyl)-4-(2-((3R,5R,8R,9R,10S,13S,14S,17S)-3-hydroxy-3,13-dimethylhexadecahydro-1H-cyclopenta[a]phenanthren-17-yl)-2-oxoethyl)-1,4-dihydro-5H-tetrazol-5-one] | 99 nM | 68.7 mL/min/kg | 239 ng·h/mL | 0.6 h | 1.69 L/kg | 186 ng/mL | 30 min | 27.6% | 326 ng·h/mL | 
CC(C)n1nnn(CC(=O)[C@H]2CC[C@H]3[C@@H]4CC[C@@H]5C[C@](C)(O)CC[C@@H]5[C@H]4CC[C@]23C)c1=O [Example 4, 1-(2-((3R,5R,8R,9R,10S,13S,14S,17S)-3-hydroxy-3,13-dimethylhexadecahydro-1H-cyclopenta[a]phenanthren-17-yl)-2-oxoethyl)-4-isopropyl-1,4-dihydro-5H-tetrazol-5-one] | 140 nM | 24.8 mL/min/kg | 659 ng·h/mL | 0.54 h | 0.88 L/kg | 808 ng/mL | 15 min | 25.8% | 782 ng·h/mL | 
C[C@@]1(O)CC[C@H]2[C@H](CC[C@@H]3[C@@H]2CC[C@]2(C)[C@@H](C(=O)Cn4nn[nH]c4=O)CC[C@@H]32)C1 [Example 19, 1-(2-((3R,5R,8R,9R,10S,13S,14S,17S)-3-hydroxy-3,13-dimethylhexadecahydro-1H-cyclopenta[a]phenanthren-17-yl)-2-oxoethyl)-1,4-dihydro-5H-tetrazol-5-one] | 24000 nM |  |  |  |  |  |  |  |  | 
C[C@@]1(O)CC[C@H]2[C@H](CC[C@@H]3[C@@H]2CC[C@]2(C)[C@@H](C(=O)Cn4nnn(-c5cnco5)c4=O)CC[C@@H]32)C1 [Example 23, 1-(2-((3R,5R,8R,9R,10S,13S,14S,17S)-3-hydroxy-3,13-dimethylhexadecahydro-1H-cyclopenta[a]phenanthren-17-yl)-2-oxoethyl)-4-(oxazol-5-yl)-1,4-dihydro-5H-tetrazol-5-one] | 96 nM |  |  |  |  |  |  |  |  | 
C[C@@]1(O)CC[C@H]2[C@H](CC[C@@H]3[C@@H]2CC[C@]2(C)[C@@H](C(=O)Cn4nnn(CCC#N)c4=O)CC[C@@H]32)C1 [Example 21, 3-(4-(2-((3R,5R,8R,9R,10S,13S,14S,17S)-3-hydroxy-3,13-dimethylhexadecahydro-1H-cyclopenta[a]phenanthren-17-yl)-2-oxoethyl)-5-oxo-4,5-dihydro-1H-tetrazol-1-yl)propanenitrile] | 290 nM |  |  |  |  |  |  |  |  | 
C[C@@]1(O)CC[C@H]2[C@H](CC[C@@H]3[C@@H]2CC[C@]2(C)[C@@H](C(=O)Cn4nnn(C5CC5)c4=O)CC[C@@H]32)C1 [Example 6, 1-cyclopropyl-4-(2-((3R,5R,8R,9R,10S,13S,14S,17S)-3-hydroxy-3,13-dimethylhexadecahydro-1H-cyclopenta[a]phenanthren-17-yl)-2-oxoethyl)-1,4-dihydro-5H-tetrazol-5-one] | 660 nM |  |  |  |  |  |  |  |  | 
Cn1cc(-n2nnn(CC(=O)[C@H]3CC[C@H]4[C@@H]5CC[C@@H]6C[C@](C)(O)CC[C@@H]6[C@H]5CC[C@]34C)c2=O)cn1 [Example 29, 1-(2-((3R,5R,8R,9R,10S,13S,14S,17S)-3-hydroxy-3,13-dimethylhexadecahydro-1H-cyclopenta[a]phenanthren-17-yl)-2-oxoethyl)-4-(1-methyl-1H-pyrazol-4-yl)-1,4-dihydro-5H-tetrazol-5-one] | 280 nM |  |  |  |  |  |  |  |  | 
C[C@@]1(O)CC[C@H]2[C@H](CC[C@@H]3[C@@H]2CC[C@]2(C)[C@@H](C(=O)Cn4nnn(CC#N)c4=O)CC[C@@H]32)C1 [Example 20, 2-(4-(2-((3R,5R,8R,9R,10S,13S,14S,17S)-3-hydroxy-3,13-dimethylhexadecahydro-1H-cyclopenta[a]phenanthren-17-yl)-2-oxoethyl)-5-oxo-4,5-dihydro-1H-tetrazol-1-yl)acetonitrile] | 560 nM |  |  |  |  |  |  |  |  | 
